Measurements as given in US11285219B2, “Peptide-oligourea hybrid compounds” (UREKA SARL, priority 2019, dated 2022).
Entries after “also recorded” stand apart in the source; their conditions may differ. Numbered stars: 1 amine (or outer) side, 2 acyl side, 3 side chain; on linkers, the order of the positions; unused ones are H or OH. Bridge positions count the residues as written; N and C are the ends. Peptide text beside a SMILES is read from it. I, II: the chains in the order shown. X4 = C[C@@H](CNC(=O)[*:1])NC(=O)NC[C@H](CCC(=O)O)NC(=O)NC[C@H](Cc1ccc(O)cc1)N[*:2]; X3 = C[C@@H](CNC(=O)[*:1])NC(=O)NC[C@H](Cc1ccc(O)cc1)NC(=O)NC[C@H](C)N[*:2]; X8 = CC(CNC(=O)NC(C)CNC(=O)[*:2])NC(=O)NCC(C)N[*:1]

Key:
NEP 24.11 = NEP 24.11 (Homo sapiens, UniProt P08473); assay: NEP 24.11 enzymatic degradation assay; conditions: pH 8
NEP 24.11, sequence (P08473 whole entry): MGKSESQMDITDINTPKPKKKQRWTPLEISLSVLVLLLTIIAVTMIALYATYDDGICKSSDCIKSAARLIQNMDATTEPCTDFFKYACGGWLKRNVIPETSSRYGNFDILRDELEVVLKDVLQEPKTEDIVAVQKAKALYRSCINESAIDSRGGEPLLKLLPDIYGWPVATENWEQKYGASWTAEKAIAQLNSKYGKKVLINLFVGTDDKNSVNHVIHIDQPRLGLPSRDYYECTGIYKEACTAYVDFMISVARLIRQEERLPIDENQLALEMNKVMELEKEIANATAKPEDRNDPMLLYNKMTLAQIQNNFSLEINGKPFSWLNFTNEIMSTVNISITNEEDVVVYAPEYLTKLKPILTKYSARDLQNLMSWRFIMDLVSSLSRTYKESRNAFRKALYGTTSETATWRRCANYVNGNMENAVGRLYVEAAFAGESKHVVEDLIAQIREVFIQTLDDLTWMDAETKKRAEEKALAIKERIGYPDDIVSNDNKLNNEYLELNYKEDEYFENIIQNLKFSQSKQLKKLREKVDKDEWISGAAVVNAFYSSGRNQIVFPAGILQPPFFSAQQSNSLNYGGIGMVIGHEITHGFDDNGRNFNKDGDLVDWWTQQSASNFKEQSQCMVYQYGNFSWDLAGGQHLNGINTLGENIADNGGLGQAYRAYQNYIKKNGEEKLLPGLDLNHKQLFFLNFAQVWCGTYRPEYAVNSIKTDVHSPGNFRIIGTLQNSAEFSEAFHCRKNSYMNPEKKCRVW
Method: Enzymatic and mouse plasma degradation studies.
Enzymatic degradation (NEP 24.11). Stock solutions of the oligomers were prepared at a concentration of 400 μM in a solution of 50 mM HEPES buffer, 50 mM NaCl, 0.05% Tween-80, pH 8.0. Stock solution of NEP 24.11 was prepared at a concentration of 100 μg/mL in water. Stability of oligomers to NEP 24.11 was assessed by conducting protease reaction in a 96-well plates at 20° C. […] Each compound was also incubated in the absence of the enzyme (12 μL of HEPES buffer and 38 μL of oligomer). At the indicated time (1, 2, 4, 6 and 22 hours) an aliquot of 10 μL was removed from each experimental reaction and pipetting into 100 μL of 1% TFA solution to quench the reaction, (t=0 min was determined using the reaction without enzyme). A portion of the quenched reaction solution was analyzed by HPLC. The time course of peptide degradation was determined by integrating the area of each peak in a series of HPLC traces.

[1] = target: T1, mouse GLP-1 receptor endogenously expressed in βTC6 cells (Mus musculus, UniProt O35659); assay: cAMP production functional assay (HTRF), agonist activity at GLP-1R; assay type: cell-based; conditions: for Potency (%), percentage of potency (cAMP production) compared to GLP-1-G^2: Table 2; for Potency (%), percentage of potency compare to GLP-1-G^2: cAMP production, Table 1; for EC50: receptor-mediated cAMP production, βTC6 cells, read-out: EC50 (nM), GLP-1R potency
T1 construct: host or cells: βTC6 cells
T1 sequence (O35659 22-463): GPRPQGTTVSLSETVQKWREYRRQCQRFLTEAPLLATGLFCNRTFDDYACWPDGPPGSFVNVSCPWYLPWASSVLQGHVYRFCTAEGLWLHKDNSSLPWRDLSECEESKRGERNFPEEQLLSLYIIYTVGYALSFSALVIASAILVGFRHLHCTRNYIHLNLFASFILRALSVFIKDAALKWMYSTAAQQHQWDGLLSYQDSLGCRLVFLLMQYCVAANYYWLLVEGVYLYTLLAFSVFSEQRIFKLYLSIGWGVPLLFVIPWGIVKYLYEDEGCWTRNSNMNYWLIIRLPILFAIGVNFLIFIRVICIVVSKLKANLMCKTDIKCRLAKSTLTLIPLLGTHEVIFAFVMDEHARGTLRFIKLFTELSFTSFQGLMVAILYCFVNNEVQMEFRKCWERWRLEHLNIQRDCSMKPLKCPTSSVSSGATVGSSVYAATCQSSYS
Method: The agonistic activity of these hybrids were obtained by functional assays using cells expressing the […] and by measuring the receptor-mediated cAMP produced (see supporting information).
In vitro pharmacology (EC50). […] Following incubation, the cells were lysed and the fluorescence acceptor (D2-labeled cAMP) and fluorescence donor (anti-cAMP antibody labeled with europium cryptate) were added.

normal mice (C57BL/6J) = assay: Blood glucose experiment in healthy mice; assay type: in vivo, mouse; design: key to In vivo activity (indicator): + = active; +++: + + + = more active; conditions: for effect on blood glucose concentration: fed normal mice, 5 μg/mouse i.v., monitored 6 h; for In vivo activity (indicator): blood glucose, mice, i.v.
Method: In the first study, we evaluated the effect of the analogues on the blood glucose concentration of normal mice (FIG. 4). The fed mice were treated with the analogues and their blood glucose concentration was monitored before and after dosing for 6 h. […] Indeed, a decrease of blood glucose concentration is observed after 30 min and the effect is preserved for 4 h after dosing.
Blood glucose experiment in healthy mice. After the acclimation period (at least 5 days), mice (male C57BL/6J mice (Charles River laboratories) (8 weeks old, 20-25 g)) were randomized into 10 groups (n=3/group) according to their body weight. They were acutely treated via i.v. route at 10 AM (5 μg/mouse). Blood glucose was measured before dosing and at 30 min, 1, 2, 4, 6 h after dosing in fed conditions.

Q: Which half-life at […] (NEP 24.11) does the source give for `CC[C@H](C)[C@H](NC(=O)[C@H](Cc1ccccc1)NC(=O)[C@H](CCC(=O)O)NC(=O)[C@H](CCCCN)NC(=O)[C@H](C)NC(=O)[C@H](C)NC(=O)[C@H](CCC(N)=O)NC(=O)CNC(=O)[C@H](CCC(=O)O)NC(=O)[C@H](CC(C)C)NC(=O)[C@H](Cc1ccc(O)cc1)NC(=O)NC[C@H](C)NC(=O)NC[C@H](C)NC(=O)N[C@@H](CNC(=O)[C@H](CO)NC(=O)[C@@H](NC(=O)[C@H](Cc1ccccc1)NC(=O)[C@@H](NC(=O)CNC(=O)[C@H](CCC(=O)O)NC(=O)CNC(=O)[C@@H](N)Cc1c[nH]cn1)[C@@H](C)O)[C@@H](C)O)CC(=O)O)C(=O)N[C@@H](C)C(=O)N[C@@H](Cc1c[nH]c2ccccc12)C(=O)N[C@@H](CC(C)C)C(=O)N[C@H](C(=O)N[C@@H](CCCCN)C(=O)NCC(=O)N[C@@H](CCCNC(=N)N)C(=O)NCC(N)=O)C(C)C` [Compound 2, GG2[D^UαA^UA^U]^9-12] here?
A: 3.6 h

Q: And the “loss of affinity with GLP-1R compared to the native peptide” value [1]?
A: over a hundred fold loss

Q: What about the “Potency (%), percentage of potency (cAMP production) compared to GLP-1-G^2” value (from here on “Potency (%), percentage … compared to GLP-1-G^2”) [1] of the same molecule?
A: 2%

Q: And the “Potency (%), percentage of potency compare to GLP-1-G^2” value [1]?
A: 2%

Q: What about the EC50 [1] of the same molecule?
A: 13 nM

Q: And the “effect on blood glucose concentration” value (normal mice (C57BL/6J))?
A: no activity; also recorded: no effect

Q: With `CC[C@H](C)[C@H](NC(=O)[C@H](Cc1ccccc1)NC(=O)[C@H](CCC(=O)O)NC(=O)[C@H](CCCCN)NC(=O)[C@H](C)NC(=O)[C@H](C)NC(=O)[C@H](CCC(N)=O)NC(=O)CNC(=O)[C@H](CCC(=O)O)NC(=O)NC[C@H](C)NC(=O)NC[C@H](Cc1ccc(O)cc1)NC(=O)NC[C@H](C)NC(=O)[C@@H](NC(=O)[C@H](CC(=O)O)NC(=O)[C@H](CO)NC(=O)[C@@H](NC(=O)[C@H](Cc1ccccc1)NC(=O)[C@@H](NC(=O)CNC(=O)[C@H](CCC(=O)O)NC(=O)CNC(=O)[C@@H](N)Cc1c[nH]cn1)[C@@H](C)O)[C@@H](C)O)C(C)C)C(=O)N[C@@H](C)C(=O)N[C@@H](Cc1c[nH]c2ccccc12)C(=O)N[C@@H](CC(C)C)C(=O)N[C@H](C(=O)N[C@@H](CCCCN)C(=O)NCC(=O)N[C@@H](CCCNC(=N)N)C(=O)NCC(N)=O)C(C)C` [Compound 5, GG2[A^UY^UA^U]^11-14] (I: EGQAAKEFIAWLVKGRG-NH2 / II: H-HGEGTFTSDV; linker I:N-II:C via X3) as the molecule, how does the half-life at […] (NEP 24.11) read?
A: 2.9 h

Q: What about the “Potency (%), percentage … compared to GLP-1-G^2” value [1] of the same molecule?
A: 15%

Q: What about the “Potency (%), percentage of potency compare to GLP-1-G^2” value [1] of the same molecule?
A: 15%

Q: What about the “In vivo activity (indicator)” value (normal mice (C57BL/6J)) of the same molecule?
A: +

Q: What about the “effect on blood glucose concentration” value (normal mice (C57BL/6J)) of the same molecule?
A: efficacy but no improvement

Q: With `CC[C@H](C)[C@H](NC(=O)[C@H](Cc1ccccc1)NC(=O)[C@H](CCC(=O)O)NC(=O)[C@H](CCCCN)NC(=O)[C@H](C)NC(=O)[C@H](C)NC(=O)NC[C@H](C)NC(=O)NC[C@H](CCC(=O)O)NC(=O)NC[C@H](Cc1ccc(O)cc1)NC(=O)[C@H](Cc1ccc(O)cc1)NC(=O)[C@H](CO)NC(=O)[C@H](CO)NC(=O)[C@@H](NC(=O)[C@H](CC(=O)O)NC(=O)[C@H](CO)NC(=O)[C@@H](NC(=O)[C@H](Cc1ccccc1)NC(=O)[C@@H](NC(=O)CNC(=O)[C@H](CCC(=O)O)NC(=O)CNC(=O)[C@@H](N)Cc1c[nH]cn1)[C@@H](C)O)[C@@H](C)O)C(C)C)C(=O)N[C@@H](C)C(=O)N[C@@H](Cc1c[nH]c2ccccc12)C(=O)N[C@@H](CC(C)C)C(=O)N[C@H](C(=O)N[C@@H](CCCCN)C(=O)NCC(=O)N[C@@H](CCCNC(=N)N)C(=O)NCC(N)=O)C(C)C` [Compound 9, GG2[Y^UE^UA^U]^14-17] (I: AAKEFIAWLVKGRG-NH2 / II: H-HGEGTFTSDVSSY; linker I:N-II:C via X4) as the molecule, how does the “Potency (%), percentage … compared to GLP-1-G^2” value [1] read?
A: 135%

Q: And the “Potency (%), percentage of potency compare to GLP-1-G^2” value [1]?
A: 135%

Q: What about the EC50 [1] of the same molecule?
A: 0.18 nM

Q: What about the “In vivo activity (indicator)” value (normal mice (C57BL/6J)) of the same molecule?
A: +

Q: And the “effect on blood glucose concentration” value (normal mice (C57BL/6J))?
A: efficacy but no improvement

Q: `CC[C@H](C)[C@H](NC(=O)NCC(C)NC(=O)NCC(C)NC(=O)NCC(C)NC(=O)[C@H](C)NC(=O)[C@H](CCC(N)=O)NC(=O)CNC(=O)[C@H](CCC(=O)O)NC(=O)[C@H](CC(C)C)NC(=O)[C@H](Cc1ccc(O)cc1)NC(=O)[C@H](CO)NC(=O)[C@H](CO)NC(=O)[C@@H](NC(=O)[C@H](CC(=O)O)NC(=O)[C@H](CO)NC(=O)[C@@H](NC(=O)[C@H](Cc1ccccc1)NC(=O)[C@@H](NC(=O)CNC(=O)[C@H](CCC(=O)O)NC(=O)CNC(=O)[C@@H](N)Cc1c[nH]cn1)[C@@H](C)O)[C@@H](C)O)C(C)C)C(=O)N[C@@H](C)C(=O)N[C@@H](Cc1c[nH]c2ccccc12)C(=O)N[C@@H](CC(C)C)C(=O)N[C@H](C(=O)N[C@@H](CCCCN)C(=O)NCC(=O)N[C@@H](CCCNC(=N)N)C(=O)NCC(N)=O)C(C)C` (stereo partly shown) [Compound 15, GG2[A^UA^UA^U]^19-22] (I: H-HGEGTFTSDVSSYLEGQA / II: IAWLVKGRG-NH2; linker I:C-II:N via X8) was tested. Which “Potency (%), percentage of potency compare to GLP-1-G^2” value [1] did it give?
A: <0.01%

Q: For `CC(C)C[C@H](NC(=O)[C@H](Cc1ccc(O)cc1)NC(=O)[C@H](CO)NC(=O)[C@H](CO)NC(=O)[C@@H](NC(=O)[C@H](CC(=O)O)NC(=O)[C@H](CO)NC(=O)[C@@H](NC(=O)[C@H](Cc1ccccc1)NC(=O)[C@@H](NC(=O)CNC(=O)[C@H](CCC(=O)O)NC(=O)CNC(=O)[C@@H](N)Cc1c[nH]cn1)[C@@H](C)O)[C@@H](C)O)C(C)C)C(=O)N[C@@H](CCC(=O)O)C(=O)NCC(=O)N[C@@H](CCC(N)=O)C(=O)N[C@@H](C)C(=O)N[C@@H](C)C(=O)N[C@@H](CCCCN)C(=O)N[C@@H](CCC(=O)O)C(=O)N[C@@H](Cc1ccccc1)C(=O)N[C@@H](C)CNC(=O)N[C@@H](C)CNC(=O)N[C@@H](C)CNC(=O)N[C@H](C(=O)N[C@@H](CCCCN)C(=O)NCC(=O)N[C@@H](CCCNC(=N)N)C(=O)NCC(N)=O)C(C)C` [Compound 17, GG2[A^UA^UA^U]^23-26], which “Potency (%), percentage of potency compare to GLP-1-G^2” value [1] is on record?
A: 0.01%

Q: Which “Potency (%), percentage of potency compare to GLP-1-G^2” value [1] does the source give for `CC[C@H](C)[C@H](NC(=O)[C@H](Cc1ccccc1)NC(=O)[C@H](CCC(=O)O)NC(=O)[C@H](CCCCN)NC(=O)[C@H](C)NC(=O)[C@H](C)NC(=O)[C@H](CCC(N)=O)NC(=O)CNC(=O)[C@H](CCC(=O)O)NC(=O)[C@H](CC(C)C)NC(=O)[C@H](Cc1ccc(O)cc1)NC(=O)[C@H](CO)NC(=O)[C@H](CO)NC(=O)[C@@H](NC(=O)[C@H](CC(=O)O)NC(=O)[C@H](CO)NC(=O)[C@@H](NC(=O)[C@H](Cc1ccccc1)NC(=O)[C@@H](NC(=O)CNC(=O)[C@H](CCC(=O)O)NC(=O)CNC(=O)[C@@H](N)Cc1c[nH]cn1)[C@@H](C)O)[C@@H](C)O)C(C)C)C(=O)NC(C)CNC(=O)NC(C)CNC(=O)NC(C)CNC(=O)N[C@@H](CCCCN)C(=O)NCC(=O)N[C@@H](CCCNC(=N)N)C(=O)NCC(N)=O` (stereo partly shown) [Compound 18, GG2[A^UA^UA^U]^24-27] here?
A: <0.01%
